Test results: patent US20100048722A1, “FORMATION OF ACCUMBENS GluR2-LACKING AMPA RECEPTORS MEDIATES […] COCAINE CRAVING” (ROSALIND FRANKLIN UNIVERSITY OF MEDICINE AND SCIENCE, priority 2008, published 2010)
Where two headings read alike, the source gives them in different places.

Test system: GluR2-lacking AMPA receptors
Details: injection into accumbens 15 min before extinction test
Procedure: Male rats were trained to nose-poke (biochemical and electrophysiology experiments) or lever-press (Naspm accumbens injections experiment) for 6-h/day for 10-12 days; each cocaine infusion was paired with a tone-light or light cue. After self-administration training, the rats were tested for cue-induced cocaine-seeking after 1 or 45 withdrawal days. During testing, lever or nose-poke responding led to contingent presentations of the cue previously paired with cocaine infusions, but not cocaine. Responding on the previously active lever or hole was the operational measure of cocaine-seeking.
The rats were anesthetized using isoflurane gas (Henry Schein, Melville, N.Y.) and flunixin meglumine was administered before surgery (2 mg/kg, i.p.) as an analgesic. A silastic catheter was inserted into the right auricle through the external jugular vein, passed under the skin and fixed in the mid-scapular region. The rats recovered from surgery for at least seven days prior to beginning self-administration training sessions. During this time, catheters were flushed every 24-48 h with sterile 0.9% saline. […]

Cl.Cl.Cl.NCCCNCCCCNCCCNC(=O)Cc1cccc2ccccc12 [Naspm, 1-Naphthylacetyl spermine trihydrochloride]
cue-induced cocaine-seeking (responses on previously active lever) (withdrawal day 1): did not alter | cue-induced cocaine-seeking (responses on previously active lever) (withdrawal day 45): significantly reduced
